Data from PubChem BioAssay (NCI).
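Test compounds were applied to cells in 96-well plates for 48 hours at 5 doses. TGI: total growth inhibition.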

Columns and labels:
Assay in all cases: NCI-60 cell line screen, 48 h
786-0 renal = tested on: 786-0 renal
A549 NSCLC = tested on: A549 NSCLC
ACHN renal = tested on: ACHN renal
CAKI-1 renal = tested on: CAKI-1 renal
CCRF-CEM leukemia = tested on: CCRF-CEM leukemia
COLO 205 colon = tested on: COLO 205 colon
DU-145 prostate = tested on: DU-145 prostate
EKVX NSCLC = tested on: EKVX NSCLC
HCC-2998 colon = tested on: HCC-2998 colon
HCT-116 colon = tested on: HCT-116 colon
HL-60(TB) leukemia = tested on: HL-60(TB) leukemia
HOP-62 NSCLC = tested on: HOP-62 NSCLC
HOP-92 NSCLC = tested on: HOP-92 NSCLC
HS 578T breast = tested on: HS 578T breast
HT29 colon = tested on: HT29 colon
IGROV1 ovarian = tested on: IGROV1 ovarian
K-562 leukemia = tested on: K-562 leukemia
KM12 colon = tested on: KM12 colon
LOX IMVI melanoma = tested on: LOX IMVI melanoma
M14 melanoma = tested on: M14 melanoma
MALME-3M melanoma = tested on: MALME-3M melanoma
MCF7 breast = tested on: MCF7 breast
MDA-MB-231 breast = tested on: MDA-MB-231 breast
MDA-MB-435 = tested on: MDA-MB-435
MOLT-4 leukemia = tested on: MOLT-4 leukemia
NCI-H226 lung = tested on: NCI-H226 lung
NCI-H23 lung = tested on: NCI-H23 lung
NCI-H460 lung = tested on: NCI-H460 lung
NCI-H522 lung = tested on: NCI-H522 lung
NCI/ADR-RES ovarian = tested on: NCI/ADR-RES ovarian
OVCAR-3 ovarian = tested on: OVCAR-3 ovarian
OVCAR-4 ovarian = tested on: OVCAR-4 ovarian
OVCAR-5 ovarian = tested on: OVCAR-5 ovarian
OVCAR-8 ovarian = tested on: OVCAR-8 ovarian
PC-3 prostate = tested on: PC-3 prostate
RPMI-8226 leukemia = tested on: RPMI-8226 leukemia
RXF 393 renal = tested on: RXF 393 renal
SF-268 CNS = tested on: SF-268 CNS
SF-295 CNS = tested on: SF-295 CNS
SF-539 CNS = tested on: SF-539 CNS
SK-MEL-28 melanoma = tested on: SK-MEL-28 melanoma
SK-MEL-5 melanoma = tested on: SK-MEL-5 melanoma
SK-OV-3 ovarian = tested on: SK-OV-3 ovarian
SN12C renal = tested on: SN12C renal
SNB-19 CNS = tested on: SNB-19 CNS
SNB-75 CNS = tested on: SNB-75 CNS
SR leukemia = tested on: SR leukemia
SW-620 colon = tested on: SW-620 colon
T-47D breast = tested on: T-47D breast
TK-10 renal = tested on: TK-10 renal
UACC-257 melanoma = tested on: UACC-257 melanoma
UACC-62 melanoma = tested on: UACC-62 melanoma
UO-31 renal = tested on: UO-31 renal
A498 renal = tested on: A498 renal
HCT-15 colon = tested on: HCT-15 colon
SK-MEL-2 melanoma = tested on: SK-MEL-2 melanoma
U251 CNS = tested on: U251 CNS

## CCCCN(CCCC)C1=Nc2ccccc2-n2c(nnc2C(=O)OCC)C1
786-0 renal
  TGI: > 100 µM
A549 NSCLC
  TGI: > 100 µM
ACHN renal
  TGI: > 100 µM
CAKI-1 renal
  TGI: > 100 µM
CCRF-CEM leukemia
  TGI: > 100 µM
COLO 205 colon
  TGI: 36.2 µM
DU-145 prostate
  TGI: > 100 µM
EKVX NSCLC
  TGI: > 100 µM
HCC-2998 colon
  TGI: > 100 µM
HCT-116 colon
  TGI: > 100 µM
HL-60(TB) leukemia
  TGI: 40.9 µM
HOP-62 NSCLC
  TGI: > 100 µM
HOP-92 NSCLC
  TGI: 81.5 µM
HS 578T breast
  TGI: > 100 µM
HT29 colon
  TGI: > 100 µM
IGROV1 ovarian
  TGI: > 100 µM
K-562 leukemia
  TGI: 86.9 µM
KM12 colon
  TGI: > 100 µM
LOX IMVI melanoma
  TGI: > 100 µM
M14 melanoma
  TGI: > 100 µM
MALME-3M melanoma
  TGI: 82.1 µM
MCF7 breast
  TGI: > 100 µM
MDA-MB-231 breast
  TGI: > 100 µM
MDA-MB-435
  TGI: > 100 µM
MOLT-4 leukemia
  TGI: 84.1 µM
NCI-H226 lung
  TGI: > 100 µM
NCI-H23 lung
  TGI: > 100 µM
NCI-H460 lung
  TGI: 89.4 µM
NCI-H522 lung
  TGI: > 100 µM
NCI/ADR-RES ovarian
  TGI: > 100 µM
OVCAR-3 ovarian
  TGI: > 100 µM
OVCAR-4 ovarian
  TGI: > 100 µM
OVCAR-5 ovarian
  TGI: > 100 µM
OVCAR-8 ovarian
  TGI: > 100 µM
PC-3 prostate
  TGI: 51.6 µM
RPMI-8226 leukemia
  TGI: > 100 µM
RXF 393 renal
  TGI: 77.4 µM
SF-268 CNS
  TGI: > 100 µM
SF-295 CNS
  TGI: > 100 µM
SF-539 CNS
  TGI: > 100 µM
SK-MEL-28 melanoma
  TGI: > 100 µM
SK-MEL-5 melanoma
  TGI: 38.5 µM
SK-OV-3 ovarian
  TGI: > 100 µM
SN12C renal
  TGI: > 100 µM
SNB-19 CNS
  TGI: > 100 µM
SNB-75 CNS
  TGI: > 100 µM
SR leukemia
  TGI: 56.3 µM
SW-620 colon
  TGI: > 100 µM
T-47D breast
  TGI: > 100 µM
TK-10 renal
  TGI: > 100 µM
UACC-257 melanoma
  TGI: 90 µM
UACC-62 melanoma
  TGI: > 100 µM
UO-31 renal
  TGI: > 100 µM

## O=c1[nH]nc(N/N=C\c2ccc(Cl)cc2)c2ccccc12
786-0 renal
  TGI: 30.6 µM
A498 renal
  TGI: 51.2 µM
A549 NSCLC
  TGI: 41.6 µM
ACHN renal
  TGI: 37.8 µM
CAKI-1 renal
  TGI: 34 µM
CCRF-CEM leukemia
  TGI: > 100 µM
COLO 205 colon
  TGI: 45.9 µM
DU-145 prostate
  TGI: 72 µM
EKVX NSCLC
  TGI: > 100 µM
HCT-116 colon
  TGI: 53.2 µM
HCT-15 colon
  TGI: 34.9 µM
HL-60(TB) leukemia
  TGI: > 100 µM
HOP-92 NSCLC
  TGI: 34.5 µM
HS 578T breast
  TGI: 62.7 µM
HT29 colon
  TGI: > 100 µM
IGROV1 ovarian
  TGI: 37.2 µM
K-562 leukemia
  TGI: 81.1 µM
KM12 colon
  TGI: 52.3 µM
M14 melanoma
  TGI: 35.4 µM
MALME-3M melanoma
  TGI: 45.4 µM
MCF7 breast
  TGI: 64 µM
MDA-MB-231 breast
  TGI: 43.7 µM
MDA-MB-435
  TGI: 32.4 µM
MOLT-4 leukemia
  TGI: > 100 µM
NCI-H226 lung
  TGI: 57.4 µM
NCI-H23 lung
  TGI: 40.1 µM
NCI-H460 lung
  TGI: 47.9 µM
NCI-H522 lung
  TGI: 48 µM
NCI/ADR-RES ovarian
  TGI: 39 µM
OVCAR-3 ovarian
  TGI: 30.2 µM
OVCAR-4 ovarian
  TGI: > 100 µM
OVCAR-5 ovarian
  TGI: 31.8 µM
OVCAR-8 ovarian
  TGI: 54.8 µM
PC-3 prostate
  TGI: 40.2 µM
RPMI-8226 leukemia
  TGI: > 100 µM
RXF 393 renal
  TGI: 56.2 µM
SF-268 CNS
  TGI: 55.5 µM
SF-295 CNS
  TGI: 34 µM
SF-539 CNS
  TGI: 47.6 µM
SK-MEL-2 melanoma
  TGI: 37 µM
SK-MEL-28 melanoma
  TGI: 56.9 µM
SK-MEL-5 melanoma
  TGI: 39.3 µM
SK-OV-3 ovarian
  TGI: 34.6 µM
SN12C renal
  TGI: 73 µM
SNB-19 CNS
  TGI: 43.1 µM
SNB-75 CNS
  TGI: 47.6 µM
SR leukemia
  TGI: 58.2 µM
SW-620 colon
  TGI: > 100 µM
T-47D breast
  TGI: 69.2 µM
TK-10 renal
  TGI: 54.4 µM
U251 CNS
  TGI: 38.2 µM
UACC-257 melanoma
  TGI: 49.3 µM
UACC-62 melanoma
  TGI: 39.4 µM
UO-31 renal
  TGI: 38.7 µM
